Columns and labels:
Akt = assay: Immunoblot of phospho-S473 Akt in T. gondii-infected CHO cells; format: cell-based, Chinese Hamster; conditions: lysates at 2 h
Protocol: FIGS. 4(A-C) illustrate Src inhibition induces T. gondii killing by impairing Akt activation. (A) CHO cells were challenged with RH-T. gondii. Cell lysates collected at 2 h were probed for Akt and phospho-S473 Akt. Relative density of phospho-Akt was normalized to total Akt and compared to the uninfected sample. Densitometry graph shown as mean±SEM from 3 independent experiments. (B-C) CHO cells or primary brain endothelial cells were transfected with plasmids encoding HA-tagged CA- or HA-tagged WT-Akt. Lysates were probed for actin, HA, Akt and phospho-S473 Akt. Cells were challenged with T. gondii and treated with Saracatinib (1 μM). Cell lysates collected at 2 h were probed for Akt and phospho-S473 Akt. Relative density of phospho-Akt and densitometries were examined as above. Percentages of infected cells and tachyzoites per 100 cells were assessed at 24 h. Data are shown as mean±SEM. The graphs show data from 6 independent monolayers pooled from 3 different experiments. Data points are shown as circles, triangles, or squares corresponding to individual monolayers within each experiment. […]

Lek and Fyn in T cells = conditions: cited from earlier work
ME49 T. gondii [1] = assay: Suboptimal dose combination in mice with ocular and cerebral toxoplasmosis; format: in vivo, C57BL/6 mice; conditions: 2.5 mg/Kg once a day, 14 days
Protocol: C57BL/6 mice that had been infected with tissue cysts of ME49 T. gondii for 4 weeks (at a time when animals have developed ocular and cerebral toxoplasmosis), were treated with suboptimal dose of Saracatinib (2.5 mg/Kg once a day) with or without suboptimal dose of Pyrimethamine (4.2 mg/Kg once a day) for 14 days.

PI3K = assay: Immunoblot of phospho-Y199 PI3K in T. gondii-infected CHO cells; format: cell-based, Chinese Hamster; conditions: lysates at 2 h
Protocol: Membranes were probed with antibodies against Src, phospho-Y416 Src, Akt, phospho-S473 Akt, PTEN, phospho-[…] PTEN, PI3K, phospho-Y458/Y199 PI3K, ULK1, EGFR, HA tag (all from Cell Signaling, Danvers, MA), phospho-Y240 PTEN (Sigma) and Actin (Santa Cruz Biotechnologies) followed by incubation with secondary antibodies (Cell Signaling and Santa Cruz Biotechnologies). Three independent experiments were performed.

[2] = system: retinal pigment epithelial cells (RPE); assay: MTT assay of potential cell toxicity, RPE cells; format: cell-based, human; conditions: 1 μM, 24 hrs
Protocol: Data are shown as mean±SEM. […] Three independent experiments were performed.

LC3 = assay: Immunofluorescence of LC3 accumulation around parasites; format: cell-based; conditions: CHO cells and brain endothelial cells expressing DN EGFR, 1 μM, 5 hours
Protocol: FIGS. 3(A-L) illustrate images and graphs showing T. gondii killing induced by Src inhibition is mediated by autophagy. (A-C) CHO cells and primary brain endothelial cells expressing WT or DN EGFR were infected with RFP-T. gondii and treated with Saracatinib 1 μM for 5 hours before staining with an anti-LC3 antibody. Accumulation of LC3 around the parasites was assessed by confocal microscopy. Scale bar, 10 μm. (D-F) CHO cells and primary brain endothelial cells expressing WT or DN EGFR were infected with RFP-T. gondii and treated with Saracatinib 1 μM for 7 hours before staining with anti-LAMP1 antibody. Accumulation of LAMP1 around parasites was assessed as above. G-I) CHO cells and primary brain endothelial cells expressing WT or DN EGFR were transfected with control siRNA or ULK1 siRNA. Relative density of ULK1 was normalized to total Actin followed by normalization relative to Ctr siRNA. […] Cells were treated with or without Saracatinib and infected with RH T. gondii. Monolayers were examined at 24 h. […]
Mammalian cells were infected with RFP-T. gondii (RH) and fixed with 4% paraformaldehyde. […] LC3 and LAMP1 were evaluated for accumulation at 5- and 7 hours post-infection, respectively. […] Parasites were evaluated blindly in multiple random fields of view and 100 parasites were examined per group. […]

ME49 T. gondii [3] = assay: Ocular and cerebral toxoplasmosis in Becn1+/+ and Becn1+/- mice; format: in vivo; conditions: 10 mg kg-1, 2 weeks

Question: With `CN1CCN(CCOc2cc(OC3CCOCC3)c3c(Nc4c(Cl)ccc5c4OCO5)ncnc3c2)CC1` [Saracatinib, N-(5-chloro-1,3-benzodioxol-4-yl)-7-(2-(4-methylpiperazin-1-yl)ethoxy)-5-(tetrahydro-2H-pyran-4-yloxy)quinazolin-4-amine] as the compound, how does the “T. gondii-induced phosphorylation of Akt at Ser473” value (Akt) read?
Answer: Its value is “abrogated”.

Question: And the “activity of Lek and Fyn in T cells” value (Lek and Fyn in T cells)?
Answer: Its value is “did not inhibit”.

Question: And the “T cell expansion and IFN-γ production following antigenic stimulation” value (Lek and Fyn in T cells; low doses, previously primed T cells, in vitro and in vivo)?
Answer: The value was “increased T cell expansion and IFN-γ production”.

Question: And the “load of tissue cysts” value (ME49 T. gondii [1])?
Answer: The value was “neither the low dose Saracatinib nor the low dose Pyrimethamine decreased”.

Question: What about the “Y199 phosphorylation of PI3K” value (PI3K) of the same compound?
Answer: The value was “inhibited”.

Question: What about the “cell toxicity (MTT)” value [2] of the same compound?
Answer: The value was “non-toxic”.

Question: What about the “accumulation of LC3 around the parasites” value (LC3) of the same compound?
Answer: Its value is “induced accumulation”.

Question: What about the “ocular and cerebral histopathology” value (ME49 T. gondii [3]; Becn 1+/+ mice) of the same compound?
Answer: The value was “improvement”.

Question: What about the parasite load (ME49 T. gondii [3]; Becn 1+/+ mice) of the same compound?
Answer: Its parasite load is “improvement”.

Question: And the “response of histopathology and parasite loads” value (ME49 T. gondii [3]; autophagy-deficient Becn 1+/- mice)?
Answer: Its value is “did not respond”.
